Reference: ChEMBL document CHEMBL1255485, “In vitro activity of fidaxomicin (OPT-80) tested against contemporary clinical isolates of Staphylococcus spp. and Enterococcus spp” (2010)
Values after ≈ are worked out from the molar mass of the structure shown.

Key:
Assay type in all cases: functional
[1] = system: Staphylococcus aureus; assay: Antibacterial activity against methicillin-susceptible Staphylococcus aureus assessed as percent resistant isolates by broth microdilution method
[2] = system: Staphylococcus aureus; assay: Antibacterial activity against methicillin-resistant Staphylococcus aureus assessed as percent resistant isolates by broth microdilution method
[3] = system: Staphylococcus aureus; assay: Antibacterial activity against methicillin-susceptible Staphylococcus aureus by broth microdilution method
[4] = system: Staphylococcus aureus; assay: Antibacterial activity against methicillin-resistant Staphylococcus aureus by broth microdilution method
[5] = system: Staphylococcus; assay: Antibacterial activity against methicillin-susceptible coagulase-negative Staphylococcus by broth microdilution method
[6] = system: Staphylococcus; assay: Antibacterial activity against methicillin-resistant coagulase-negative Staphylococcus by broth microdilution method
[7] = system: Enterococcus faecalis; assay: Antibacterial activity against vancomycin-susceptible Enterococcus faecalis by broth microdilution method
[8] = system: Enterococcus faecalis; assay: Antibacterial activity against vancomycin-resistant Enterococcus faecalis by broth microdilution method
[9] = system: Enterococcus faecium; assay: Antibacterial activity against vancomycin-susceptible Enterococcus faecium by broth microdilution method
[10] = system: Enterococcus faecium; assay: Antibacterial activity against vancomycin-resistant Enterococcus faecium by broth microdilution method
[11] = system: Staphylococcus aureus; assay: Selectivity ratio of MIC50 for methicillin-susceptible Staphylococcus aureus to MIC50 for methicillin-resistant Staphylococcus aureus
[12] = system: Staphylococcus aureus; assay: Antibacterial activity against linezolid-nonsusceptible Staphylococcus aureus by broth microdilution method
[13] = Selectivity ratio of MIC50 for vancomycin-susceptible Enterococcus faecium to MIC50 for vancomycin-susceptible Enterococcus faecalis
[14] = Selectivity ratio of MIC50 for vancomycin-resistant Enterococcus faecium to MIC50 for vancomycin-resistant Enterococcus faecalis
[15] = Selectivity ratio of MIC90 for vancomycin-resistant Enterococcus faecium to MIC90 for vancomycin-resistant Enterococcus faecalis
[16] = system: Staphylococcus aureus; assay: Selectivity ratio of MBC to MIC for Staphylococcus aureus
[17] = system: Staphylococcus; assay: Selectivity ratio of MBC to MIC for coagulase-negative Staphylococcus
[18] = system: Enterococcus faecalis; assay: Selectivity ratio of MBC to MIC for Enterococcus faecalis
[19] = system: Enterococcus faecium; assay: Selectivity ratio of MBC to MIC for Enterococcus faecium
[20] = system: Staphylococcus; assay: Antibacterial activity against Staphylococcus by agar dilution technique
[21] = system: Enterococcus; assay: Antibacterial activity against Enterococcus by agar dilution technique
[22] = system: Staphylococcus; assay: Antibacterial activity against methicillin-susceptible coagulase-negative Staphylococcus assessed as percent susceptible isolates by broth microdilution method
[23] = system: Staphylococcus; assay: Antibacterial activity against methicillin-resistant coagulase-negative Staphylococcus assessed as percent susceptible isolates by broth microdilution method
[24] = system: Staphylococcus; assay: Antibacterial activity against methicillin-resistant coagulase-negative Staphylococcus assessed as percent resistant isolates by broth microdilution method
[25] = system: Enterococcus faecalis; assay: Antibacterial activity against vancomycin-susceptible Enterococcus faecalis assessed as percent susceptible isolates by broth microdilution method
[26] = system: Enterococcus faecalis; assay: Antibacterial activity against vancomycin-susceptible Enterococcus faecalis assessed as percent resistant isolates by broth microdilution method
[27] = system: Enterococcus faecalis; assay: Antibacterial activity against vancomycin-resistant Enterococcus faecalis assessed as percent susceptible isolates by broth microdilution method
[28] = system: Enterococcus faecalis; assay: Antibacterial activity against vancomycin-resistant Enterococcus faecalis assessed as percent resistant isolates by broth microdilution method
[29] = system: Enterococcus faecium; assay: Antibacterial activity against vancomycin-susceptible Enterococcus faecium assessed as percent susceptible isolates by broth microdilution method
[30] = system: Enterococcus faecium; assay: Antibacterial activity against vancomycin-susceptible Enterococcus faecium assessed as percent resistant isolates by broth microdilution method
[31] = system: Enterococcus faecium; assay: Antibacterial activity against vancomycin-resistant Enterococcus faecium assessed as percent susceptible isolates by broth microdilution method
[32] = system: Enterococcus faecium; assay: Antibacterial activity against vancomycin-resistant Enterococcus faecium assessed as percent resistant isolates by broth microdilution method

| SMILES | Activity [1] [%] | Activity [2] [%] | MIC50 [3] [µg/mL] | MIC90 [3] [µg/mL] | MIC50 [4] [µg/mL] | MIC90 [4] [µg/mL] | MIC50 [5] [µg/mL] | MIC90 [5] [µg/mL] | MIC50 [6] [µg/mL] | MIC90 [6] [µg/mL] | MIC [7] [µg/mL] | MIC50 [7] [µg/mL] | MIC90 [7] [µg/mL] | MIC [8] [µg/mL] | MIC50 [8] [µg/mL] | MIC90 [8] [µg/mL] | MIC50 [9] [µg/mL] | MIC90 [9] [µg/mL] | MIC50 [10] [µg/mL] | MIC90 [10] [µg/mL] | further results |
| --- | --- | --- | --- | --- | --- | --- | --- | --- | --- | --- | --- | --- | --- | --- | --- | --- | --- | --- | --- | --- | --- |
| CCC[C@@H]1C[C@@H](C(=O)N[C@@H]([C@H]2O[C@H](SC)[C@H](O)[C@@H](O)[C@H]2O)[C@H](C)Cl)N(C)C1 [CLINDAMYCIN] | 2.3 | 43.8 |  |  |  |  |  |  |  |  |  |  |  |  |  |  |  |  |  |  |  |
| CC[C@H]1OC(=O)[C@H](C)[C@@H](O[C@H]2C[C@@](C)(OC)[C@@H](O)[C@H](C)O2)[C@H](C)[C@@H](O[C@@H]2O[C@H](C)C[C@H](N(C)C)[C@H]2O)[C@](C)(O)C[C@@H](C)C(=O)[C@H](C)[C@@H](O)[C@]1(C)O [ERYTHROMYCIN] | 16.3 | 87.5 |  |  |  |  |  |  |  |  |  |  |  |  |  |  |  |  |  |  |  |
| CCc1c(Cl)c(O)c(Cl)c(O)c1C(=O)O[C@H]1[C@H](O)[C@H](OC)[C@H](OC/C2=C\C=C\C[C@H](O)/C(C)=C/[C@H](CC)[C@@H](O[C@@H]3OC(C)(C)[C@@H](OC(=O)C(C)C)[C@H](O)[C@@H]3O)/C(C)=C/C(C)=C/C[C@@H]([C@@H](C)O)OC2=O)O[C@@H]1C [FIDAXOMICIN] |  |  | 8 (≈ 7.56 µM) | 8 (≈ 7.56 µM) | 4 (≈ 3.78 µM) | 8 (≈ 7.56 µM) | 2 (≈ 1.89 µM) | 4 (≈ 3.78 µM) | 1 (≈ 0.945 µM) | 4 (≈ 3.78 µM) | 2 (≈ 1.89 µM) | 2 (≈ 1.89 µM) | 4 (≈ 3.78 µM) | 2 (≈ 1.89 µM) | 2 (≈ 1.89 µM) | 2 (≈ 1.89 µM) | 4 (≈ 3.78 µM) | 4 (≈ 3.78 µM) | 4 (≈ 3.78 µM) | 4 (≈ 3.78 µM) | Ratio [11]: 2; MIC [12]: > 4 µg/mL; Ratio [13]: 2; Ratio [14]: 2; Ratio [15]: 2; Selectivity ratio [16]: >=16; Selectivity ratio [17]: >=16; Selectivity ratio [18]: >=16; Selectivity ratio [19]: >=16; MIC90 [20]: 2 µg/mL (≈ 1.89 µM); MIC90 [21]: 8 µg/mL (≈ 7.56 µM) |
| C[C@H]1COc2c(N3CCN(C)CC3)c(F)cc3c(=O)c(C(=O)O)cn1c23.C[C@H]1COc2c(N3CCN(C)CC3)c(F)cc3c(=O)c(C(=O)O)cn1c23.O [LEVOFLOXACIN] | 9.3 | 56.3 |  |  |  |  |  |  |  |  |  |  |  |  |  |  |  |  |  |  |  |
| CO[C@H]1/C=C/O[C@@]2(C)Oc3c(C)c(O)c4c(O)c(c(/C=N/N5CCN(C)CC5)c(O)c4c3C2=O)NC(=O)/C(C)=C\C=C\[C@H](C)[C@H](O)[C@@H](C)[C@@H](O)[C@@H](C)[C@H](OC(C)=O)[C@@H]1C [RIFAMPIN] | 2.3 | 18.8 |  |  |  |  |  |  |  |  |  |  |  |  |  |  |  |  |  |  |  |
| CN[C@H](CC(C)C)C(=O)N[C@H]1C(=O)N[C@@H](CC(N)=O)C(=O)N[C@H]2C(=O)N[C@H]3C(=O)N[C@H](C(=O)N[C@H](C(=O)O)c4cc(O)cc(O)c4-c4cc3ccc4O)[C@H](O)c3ccc(c(Cl)c3)Oc3cc2cc(c3O[C@@H]2O[C@H](CO)[C@@H](O)[C@H](O)[C@H]2O[C@H]2C[C@](C)(N)[C@H](O)[C@H](C)O2)Oc2ccc(cc2Cl)[C@H]1O [VANCOMYCIN] | 0 | 15.6 | 1 (≈ 0.69 µM) | 1 (≈ 0.69 µM) | 1 (≈ 0.69 µM) | 16 (≈ 11 µM) | 1 (≈ 0.69 µM) | 2 (≈ 1.38 µM) | 2 (≈ 1.38 µM) | 2 (≈ 1.38 µM) | 1 (≈ 0.69 µM) | 1 (≈ 0.69 µM) | 1 (≈ 0.69 µM) | > 16 | > 16 | > 16 | > 0.5 | 1 (≈ 0.69 µM) | > 16 | > 16 | MIC [10]: > 16 µg/mL; Activity [22]: 100%; Activity [23]: 100%; Activity [24]: 0%; Activity [25]: 100%; Activity [26]: 0%; Activity [27]: 0%; Activity [28]: 100%; Activity [29]: 100%; Activity [30]: 0%; Activity [31]: 0%; Activity [32]: 100% |
